# According to article PMC11220795 (Molecular Pharmaceutics, 2024):
# Assay: Drug solubility in medium-chain triglycerides (MCT, Miglyol 812 N); SORESOS 96-well assay, miniaturized shake-flask or literature
# Details: decadic logarithm of molar solubility in MCTs (Miglyol 812 N), 24 h at room temperature; no literature source given
# Protocol: The excipient complies with the quality specifications of the European Pharmacopoeia. The solvents used for the ultra-performance liquid chromatography (UPLC) quantification were of UPLC grade.
# (b) employing a miniaturized version of the shake-flask method in 2 mL glass vials,[33] or (c) collecting data from the literature.[12],[34] Each of the employed assays involved residual solid-state screenings by powder X-ray diffraction to identify potential solid-state changes during solubility screenings.
row,Compound,log10 S [M]
1,CC(C)C(=O)Nc1ccc([N+](=O)[O-])c(C(F)(F)F)c1 [flutamide],-0.97 M
2,COc1cc2ncnc(Nc3ccc(F)c(Cl)c3)c2cc1OCCCN1CCOCC1 [gefitinib],-3.09 M
3,CCC1=C(C)CN(C(=O)NCCc2ccc(S(=O)(=O)NC(=O)N[C@H]3CC[C@H](C)CC3)cc2)C1=O [glimepiride],-4.38 M
4,CC(C)C(=O)c1c(C(C)C)nn2ccccc12 [ibudilast],0.0143 M
5,OCCOc1ccc(/C(=C(/CCCl)c2ccccc2)c2ccccc2)cc1 [ospemifene],-1.47 M
6,Cn1c(=O)c2[nH]cnc2n(C)c1=O [theophylline],-2.92 M

# Other lines, results leading:
row,log10 S [M],Compound
1,-2.46 M,CCn1c(=O)c2c(nc(/C=C/c3ccc(OC)c(OC)c3)n2C)n(CC)c1=O [istradefylline]
2,-2.00 M,CCOC(=O)C1=C(C)NC(C)=C(C(=O)OCC)C1c1ccccc1/C=C/C(=O)OC(C)(C)C [lacidipine]
3,-1.21 M,CCOC(=O)N1CCC(=C2c3ccc(Cl)cc3CCc3cccnc32)CC1 [loratadine]
4,-2.45 M,CC[C@H](C)C(=O)O[C@H]1C[C@@H](C)C=C2C=C[C@H](C)[C@H](CC[C@@H]3C[C@@H](O)CC(=O)O3)[C@H]21 [lovastatin]
5,-1.74 M,OC(c1cc(C(F)(F)F)nc2c(C(F)(F)F)cccc12)C1CCCCN1 (stereo not drawn) [mefloquine]
6,-0.86 M,Clc1ccc(COC(Cn2ccnc2)c2ccc(Cl)cc2Cl)c(Cl)c1 (stereo not drawn) [miconazole]
7,-3.47 M,CC1(C)CCC(C)(C)c2cc(Cn3cccn3)c(/C=C/c3ccc(C(=O)O)cc3)cc21 [palovarotene]
8,-3.55 M,CC[C@@H]([C@H](C)O)n1ncn(-c2ccc(N3CCN(c4ccc(OC[C@@H]5CO[C@@](Cn6cncn6)(c6ccc(F)cc6F)C5)cc4)CC3)cc2)c1=O [posaconazole]
9,-3.11 M,CC(C)(C)NC(=O)[C@@H]1C[C@@H]2CCCC[C@@H]2CN1C[C@@H](O)[C@H](Cc1ccccc1)NC(=O)[C@H](CC(N)=O)NC(=O)c1ccc2ccccc2n1 [saquinavir]
10,-2.99 M,CN1CC(=O)N2[C@H](c3ccc4c(c3)OCO4)c3[nH]c4ccccc4c3C[C@@H]2C1=O [tadalafil]
11,-2.05 M,CC(C)(C)c1ccc(C(O)CCCN2CCC(C(O)(c3ccccc3)c3ccccc3)CC2)cc1 (stereo not drawn) [terfenadine]
12,-2.30 M,C/C(O)=C(\C#N)C(=O)Nc1ccc(C(F)(F)F)cc1 [teriflunomide]
13,-1.65 M,Cc1c(Cl)cccc1Nc1ccccc1C(=O)O [tolfenamic acid]
14,-2.35 M,Cc1cc(-n2c(=O)[nH]c(=O)n(C)c2=O)ccc1Oc1ccc(SC(F)(F)F)cc1 [toltrazuril]
15,-1.45 M,C[C@@H](c1ncncc1F)[C@](O)(Cn1cncn1)c1ccc(F)cc1F [voriconazole]

# Assay: not given
# Details: decadic logarithm of molar solubility in MCTs; ref Alsenz, J. and Kuentz, M., 2019; cited from earlier work
row,Compound,log10 S [M]
1,COc1ccc2c(c1)c(CC(=O)OCC(=O)O)c(C)n2C(=O)c1ccc(Cl)cc1 [acemetacin],-2.33 M
2,CCCSc1ccc2nc(NC(=O)OC)[nH]c2c1 [albendazole],-2.91 M
3,Cc1ccccc1-c1cc(N2CCOCC2)ncc1N(C)C(=O)C(C)(C)c1cc(C(F)(F)F)cc(C(F)(F)F)c1 [befetupitant],-1.08 M
4,CC(=O)Oc1ccc(C(c2ccc(OC(C)=O)cc2)c2ccccn2)cc1 [bisacodyl],-2.22 M

# Same assay, conditions: decadic logarithm of molar solubility in MCTs; ref Alskär, L.C., Porter, C.J. and Bergström, C.A., 2016; cited from earlier work
row,Compound,log10 S [M]
1,COc1cc(C)c(/C=C/C(C)=C/C=C/C(C)=C/C(=O)O)c(C)c1C [acitretin],-3.13 M
2,CCOc1nc2cccc(C(=O)OC(C)OC(=O)OC3CCCCC3)c2n1Cc1ccc(-c2ccccc2-c2nnn[nH]2)cc1 (stereo not drawn) [candesartan cilexetil],-2.93 M
3,CCOc1nc2cccc(C(=O)O)c2n1Cc1ccc(-c2ccccc2-c2nnn[nH]2)cc1 [candesartan],-4.64 M

# Same assay, conditions: decadic logarithm of molar solubility in MCTs; ref Wyttenbach, N., Niederquell, A., Ectors, P. and Kuentz, M., 2022; cited from earlier work
row,Compound,log10 S [M]
1,c1ccc(-c2ccc(C(c3ccccc3)n3ccnc3)cc2)cc1 (stereo not drawn) [bifonazole],-1.97 M
2,NC(=O)N1c2ccccc2C=Cc2ccccc21 [carbamazepine],-2.09 M
